Measurements taken from ChEMBL document CHEMBL3886344, “Compounds of modulating TRPV3 function” (2015).

Assay: Inhibition Assay: To determine whether compounds were selective for TRPV3 inhibition over inhibition of other ion channel types, the human ERG (hERG), NaV1.2, and TRPV1 (hTRPV1) channels and the rat TRPV6 (rTRPV6) channel were also stably transfected and expressed or induced to express in mammalian cell lines. The methods for measuring currents from these channels are well-established and have been described in numerous publications (See, Weerapura et al., 2002, J Physiology 540: 15-27; Rush et al., 2005, J Physiology 564: 808-815; Caterina et al., 1997, Nature 389: 816-824; Hoenderhop et al., 2001, J Physiology 537: 747-761; Clapham et al., 2003, Pharmacol Rev 55: 591-596).

In the case of `Cc1cccc2c1N(C(=O)CSc1ccc(Cl)cn1)CCC2`, the IC50 is reported as greater than 30 µM.
